{
  "source": "patent US20100215710A1",
  "about": "“Beta-2 Adrenergic Receptor Agonists and Antagonists and Modulation of Wound Healing” (The Regents of the University of California, priority 2005, published 2010)",
  "key": {"[1]": {"settings": "cited from earlier work"}, "human keratinocytes [2]": {"tested_on": "human keratinocytes", "assay": "Single cell migration assay, keratinocytes (clenbuterol, OA)", "format": "cell-based", "settings": "1 μM clenbuterol, one-hour period, vs control", "procedure": "All single cell migration assays were performed on cells plated on glass cover-slips inserted into 35 mm plastic dishes (MatTek Corp., Ashland, Mass.) that had been coated for 1 hour at 37° C. with 60 μg/ml collagen L Cells were plated onto the collagen-coated glass cover-slips at a density of 250 cells/mm^2 for 3-6 hours at 37° C. Cells were either untreated (control), pre-treated with 10 nM okadaic acid (OA) (10 nM) for 45 minutes prior to the addition of OA (10 nM) and clenbuterol (1 μM) (OA/Clen) or treated with either OA or clenbuterol (1 μM) alone at time 0. The dishes were inserted into metal plates, maintained at 37° C., on inverted Nikon Diaphot microscopes to monitor single cell migration. Time-lapse images of the cell migratory response were digitally captured every 10 minutes over a one-hour period by Q-Imaging Retiga-EX cameras (Burnaby, BC, Canada) controlled by a custom automation written in Improvision Open Lab software (Lexington, Mass.) on a Macintosh G4. After each cell's center of mass was tracked using the Open Lab software, migration speed and distance were calculated and imported to Excel (Microsoft Corporation, Redmond, Wash.). Significance was taken as p<0.01, using Student's t test (unpaired) to compare the means of the control and β-AR agonist-treated cell populations.\nKeratinocytes were plated onto collagen-coated glass cover-slips at a concentration of 250 cells/mm^2 in KGM for 3-6 hours at 37° C. The migration of each single cell was monitored over a one-hour period, and the results were analyzed in excel as described. The speed of migration ([…]) is represented graphically in FIG. 1 Panel C, control n=57, clenbuterol n=57, OA n=60, OA-clenbuterol n=44. The data are representative of three independent experiments with at least two different keratinocyte strains. * P<0.01 between β-AR agonist and controls; #P<0.01 between OA-clenbuterol and clenbuterol alone."}, "human keratinocytes [3]": {"tested_on": "human keratinocytes", "assay": "Scratch assay, confluent keratinocyte cultures (clenbuterol)", "format": "cell-based", "settings": "1 μM clenbuterol", "procedure": "Human keratinocytes were isolated from neonatal foreskins as reported previously (Isseroff et al. (1987) Conversion of linoleic acid into arachidonic acid by cultured murine and human keratinocytes. J Lipid Res 28:1342-1349) and cultured using a modification of the method of Rheinwald and Green (Rheinwald and Green (1975) Serial cultivation of strains of human epidermal keratinocytes: the formation of keratinizing colonies from single cells. Cell 6:331-343). […]\nCells were grown to confluence on cover-slips (Fisher Scientific, Pittsburgh, Pa.) coated with 60 μg/ml Collagen I (Vitrogen 100, Collagen Corp., Palo Alto, Calif.). […] The area of the wound was determined using NIH Image 1.6 and the percent wound healing calculated by dividing the area of the wound at time X by the area of the wound at time 0 and multiplying by 100. […]\nKeratinocytes were grown to confluence on collagen-coated glass cover-slips in the absence (control) or presence of 1 μM clenbuterol. […] Representative photographs of images at time 40 hours are shown in FIG. 1 Panel A. The percent wound healing was calculated and is represented graphically in FIG. 1 Panel B; control wounds are indicated by circles, clenbuterol treated by squares. […]"}, "[4]": {"tested_on": "cultured human keratinocytes", "assay": "Keratinocyte migratory speed with epinephrine at post-burn levels", "format": "cell-based", "source_text": "(§1) Since burn wounded patients have elevated levels of the circulating β2-AR activator epinephrine, whether blockade of β2-ARs increases keratinocyte migration and has the potential to accelerate burn wound re-epithelialization was examined."}, "human keratinocytes [5]": {"tested_on": "human keratinocytes", "assay": "Scratch wounding of confluent keratinocytes with epinephrine", "format": "cell-based", "source_text": "as §1"}, "human skin wounds": {"tested_on": "human skin wounds", "assay": "Human skin wound healing assay (explant culture, 10% serum)", "format": "cell-based", "settings": "isoproterenol-treated wounds", "source_text": "A wound healing model developed by Kratz (Kratz (1998) Modeling of wound healing processes in human skin using tissue culture. Microsc Res Tech 42:345-350) was adapted. Normal human skin was obtained from routine breast reductions or abdominoplasties under an approved exemption granted by the Internal Review Board at University of California, Davis. Under sterile conditions, excess subcutaneous fat was trimmed from 6″×3″ sections of skin prior to stretching and pinning onto sterile cork board. A 3 mm punch (Sklar Instruments, West Chester, Pa.) was used to make wounds in the epidermis and into the superficial dermis and the 3 mm discs of skin were excised using sterile scissors. 6 mm skin discs, with the 3 mm epidermal wound in the center, were excised using a 6 mm biopsy punch (SMS Inc., Columbia, Md.). […] Re-epithelialization was determined using light microscopy. […] Measuring the linear distance covered by new epithelium and dividing that by the linear distance between the original wound edges determined the percentage of re-epithelialization. […]\nWounds, 3 mm in diameter, were generated in excised human skin, cultured in the presence or absence of 10 μM isoproterenol, fixed and stained every day after wounding as described. Re-epithelialization was determined using light microscopy. […]"}, "[6]": {"tested_on": "corneal epithelial wounds", "assay": "Corneal epithelial wound healing in vivo in β2-AR +/+ or −/− mice", "procedure": "Using male β2-AR +/+ or β2-AR −/− mice, 2 mm diameter circular corneal epithelial wounds (OD) were created using a crescent blade. The corneas were treated topically with Balanced Salt Solution (BSS), BSS with 1% isoproterenol, or BSS with 0.5% timolol, and the wound healing was monitored stereomicroscopically using fluorescein."}, "human skin burn wounds": {"tested_on": "human skin burn wounds", "assay": "Ex vivo model of burn wound healing in excised human skin", "format": "cell-based", "settings": "for burn wound re-epithelialization status: 10 μm, day ten after the burn wound, control did not fully re-epithelialize", "procedure": "An ex vivo model of burn wound healing was developed. A heated brass rod was applied to excised human skin, obtained and maintained basically as described above in Example 1. Burn wounds were treated with β-AR agonist (10 μm isoproterenol) or β-AR antagonist (10 μm timolol). […] Images were taken at 40× magnification."}, "β2-AR": {"tested_on": "β2-AR", "assay": "Western blot of β2-AR in scratch wounded keratinocyte cultures", "format": "cell-based, human", "settings": "addition of timolol", "source_text": "as §1"}},
  "data": [
    {"compound": "CC(C)(C)NCC(O)COc1cccc2c1CC(O)C(O)C2", "note": "(stereo not shown) [Nadolol, nadolol]", "values": [
      {"measurement": "lipid solubility", "setting": "[1]", "value": "low"}
    ]},
    {"compound": "CC(C)(C)NCC(O)c1cc(Cl)c(N)c(Cl)c1", "note": "(stereo not shown) [clenbuterol]", "values": [
      {"measurement": "reduction of keratinocyte migratory speed", "setting": "human keratinocytes [2]", "value": 45, "unit": "%"},
      {"measurement": "time required for scratch wounds to heal", "setting": "human keratinocytes [3]", "value": "significantly increases"},
      {"measurement": "percent wound healing of scratch wounds", "setting": "human keratinocytes [3]; 40 hours after wounding, control wounds completely healed", "value": 40, "unit": "%"}
    ]},
    {"compound": "CNC[C@H](O)c1ccc(O)c(O)c1", "note": "[epinephrine]", "values": [
      {"measurement": "decrease in keratinocyte migratory speed", "setting": "[4]; epinephrine 10 nM", "value": 75, "unit": "%"},
      {"measurement": "reduction of scratch wound healing", "setting": "human keratinocytes [5]; epinephrine pretreatment", "value": 70, "unit": "%"}
    ]},
    {"compound": "CC(C)NCC(O)c1ccc(O)c(O)c1", "note": "(stereo not shown) [isoproterenol]", "values": [
      {"measurement": "re-epithelialization of human skin wounds", "setting": "human skin wounds", "value": "significant delay"},
      {"measurement": "delay of wound healing (rate, linear phase)", "setting": "[6]; β2-AR +/+ mice, topical BSS with 1% isoproterenol", "value": "~80", "unit": "%"},
      {"measurement": "delay of wound healing", "setting": "[6]; β2-AR −/− mice, topical BSS with 1% isoproterenol", "value": "but not in β2-AR −/− mice"},
      {"measurement": "delay of re-epithelialization", "setting": "human skin burn wounds; 10 μm isoproterenol, day ten after the burn", "value": 14, "unit": "%"},
      {"measurement": "burn wound re-epithelialization status", "setting": "human skin burn wounds", "value": "did not fully re-epithelialize"}
    ]},
    {"compound": "CC(C)(C)NC[C@H](O)COc1nsnc1N1CCOCC1", "note": "[timolol]", "values": [
      {"measurement": "migratory speed of epinephrine-treated keratinocytes", "setting": "[4]; timolol 10 μM added to epinephrine 10 nM", "value": "restored the migratory speed to control levels"},
      {"measurement": "acceleration of scratch wound healing", "setting": "human keratinocytes [5]; timolol added to epinephrine", "value": 20, "unit": "%"},
      {"measurement": "effect on epinephrine-reduced scratch wound healing", "setting": "human keratinocytes [5]; timolol added to epinephrine", "value": "reversed the effects of epinephrine"},
      {"measurement": "rate of healing", "setting": "[6]; β2-AR +/+ mice, topical BSS with 0.5% timolol", "value": "increased the rate of healing significantly"},
      {"measurement": "increase in rate of healing", "setting": "[6]; β2-AR −/− mice, topical BSS with 0.5% timolol", "value": "but not in β2-AR −/− mice"},
      {"measurement": "enhancement of re-epithelialization", "setting": "human skin burn wounds; 10 μm timolol, day ten after the burn", "value": 37, "unit": "%"},
      {"measurement": "burn wound re-epithelialization status", "setting": "human skin burn wounds", "value": "fully re-epithelialized"},
      {"measurement": "β2-AR downregulation one hour after the scratch", "setting": "β2-AR", "value": "delayed"}
    ]}
  ]
}
